Source: US10758534B2 (Vertex Pharmaceuticals Incorporated, priority 2014, dated 2020)

target: T1, F508del (Homo sapiens, UniProt P13569, DEL508-508); experiment: Protocol 1: membrane potential optical assay (FLIPR III, voltage sensing dye), identification of potentiator compounds; assay type: cell-based; details: Table 3, compounds of Table 1
T1 construct: expressed in transfected cells
Procedure, shortened: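 Gating potentiation is read as a membrane-potential fluorescence change (FLIPR III, voltage-sensing dye) after one forskolin addition under a Cl− gradient, with gluconate replacing chloride, pH 7.4. Cells are F508del-expressing NIH3T3 mouse fibroblasts held 24 h at 27 °C and exposed to compound before dye loading.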

T1 sequence (P13569 with tags, fused parts or gaps DEL508-508): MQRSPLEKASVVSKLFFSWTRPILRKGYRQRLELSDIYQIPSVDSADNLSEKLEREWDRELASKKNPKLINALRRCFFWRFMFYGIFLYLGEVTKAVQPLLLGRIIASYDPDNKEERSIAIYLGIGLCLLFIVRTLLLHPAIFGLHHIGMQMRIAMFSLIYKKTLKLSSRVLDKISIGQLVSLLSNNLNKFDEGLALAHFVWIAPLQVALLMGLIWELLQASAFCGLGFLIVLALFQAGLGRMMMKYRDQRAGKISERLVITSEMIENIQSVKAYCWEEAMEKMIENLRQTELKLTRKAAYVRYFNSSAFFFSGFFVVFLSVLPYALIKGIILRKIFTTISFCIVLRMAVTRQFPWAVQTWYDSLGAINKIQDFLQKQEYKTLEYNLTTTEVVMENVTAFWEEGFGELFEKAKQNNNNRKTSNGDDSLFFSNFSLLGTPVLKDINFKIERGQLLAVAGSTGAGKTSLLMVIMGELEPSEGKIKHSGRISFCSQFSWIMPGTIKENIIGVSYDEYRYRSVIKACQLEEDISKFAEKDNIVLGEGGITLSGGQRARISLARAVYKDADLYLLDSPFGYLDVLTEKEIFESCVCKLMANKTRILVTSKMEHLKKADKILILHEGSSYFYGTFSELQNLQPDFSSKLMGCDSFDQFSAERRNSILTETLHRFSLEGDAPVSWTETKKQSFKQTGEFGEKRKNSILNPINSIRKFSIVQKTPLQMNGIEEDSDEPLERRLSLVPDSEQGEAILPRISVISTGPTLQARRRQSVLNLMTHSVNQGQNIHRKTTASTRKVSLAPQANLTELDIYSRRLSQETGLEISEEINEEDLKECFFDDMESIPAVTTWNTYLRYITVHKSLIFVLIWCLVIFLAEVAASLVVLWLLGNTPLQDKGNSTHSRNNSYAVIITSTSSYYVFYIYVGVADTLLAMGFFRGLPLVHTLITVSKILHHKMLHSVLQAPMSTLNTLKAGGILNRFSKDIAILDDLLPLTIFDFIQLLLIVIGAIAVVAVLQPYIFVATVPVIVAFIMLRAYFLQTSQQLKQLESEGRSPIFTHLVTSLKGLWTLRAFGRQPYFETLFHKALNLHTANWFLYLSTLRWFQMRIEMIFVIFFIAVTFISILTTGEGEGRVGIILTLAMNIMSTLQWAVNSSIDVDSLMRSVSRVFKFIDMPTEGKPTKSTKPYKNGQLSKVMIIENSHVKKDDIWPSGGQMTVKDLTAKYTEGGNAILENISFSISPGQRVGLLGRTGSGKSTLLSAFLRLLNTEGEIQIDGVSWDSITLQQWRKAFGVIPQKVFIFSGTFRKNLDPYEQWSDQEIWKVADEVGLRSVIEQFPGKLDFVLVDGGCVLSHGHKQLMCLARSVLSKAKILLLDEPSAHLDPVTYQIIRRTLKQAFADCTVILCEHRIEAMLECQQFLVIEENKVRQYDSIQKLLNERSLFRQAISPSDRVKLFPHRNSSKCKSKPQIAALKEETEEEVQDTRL

Row | EC30 | SMILES
1 | +++ (“+++” means <3 uM) | CC(C)Cc1ccnn1-c1ccc(C(=O)NS(=O)(=O)c2cccc(N)n2)c(N2C[C@@H](C)CC2(C)C)n1 [Compound 1431, N-[(6-amino-2-pyridyl)sulfonyl]-6-(5-isobutylpyrazol-1-yl)-2-[(4S)-2,2,4-trimethylpyrrolidin-1-yl]pyridine-3-carboxamide]
2 | +++ (“+++” means <3 uM) | CCOC(=O)C1CC=C(c2ccc(C(=O)NS(=O)(=O)c3cccc(N)n3)c(Oc3c(C)cc(C)cc3C)n2)CC1 (stereo not shown) [Compound 1432, ethyl 4-[5-[(6-amino-2-pyridyl)sulfonylcarbamoyl]-6-(2,4,6-trimethylphenoxy)-2-pyridyl]cyclohex-3-ene-1-carboxylate]
3 | ++ (“++” means between 3 uM and 10 uM) | CCOc1cccc2c1CN(Cc1ccc(F)cc1)C2(C)C(=O)NS(=O)(=O)c1cccc(N)n1 (stereo not shown) [Compound 1433, N-[(6-amino-2-pyridyl)sulfonyl]-4-ethoxy-2-[(4-fluorophenyl)methyl]-1-methyl-isoindoline-1-carboxamide]
4 | ++ (“++” means between 3 uM and 10 uM) | CC(C)Oc1ccc(-c2nc(N3C[C@@H](C)CC3(C)C)ccc2C(=O)NS(=O)(=O)c2cccc(N)n2)cn1 [Compound 1436, N-[(6-amino-2-pyridyl)sulfonyl]-2-(6-isopropoxy-3-pyridyl)-6-[(4S)-2,2,4-trimethylpyrrolidin-1-yl]pyridine-3-carboxamide]
5 | ++ (“++” means between 3 uM and 10 uM) | Cc1cc(C)c(Oc2nc(C3=CCCC4(C3)OCCO4)ccc2C(=O)NS(=O)(=O)c2cccc(N)n2)c(C)c1 [Compound 1437, N-[(6-amino-2-pyridyl)sulfonyl]-6-(1,4-dioxaspiro[4.5]dec-8-en-9-yl)-2-(2,4,6-trimethylphenoxy)pyridine-3-carboxamide]
6 | +++ (“+++” means <3 uM) | C[C@@H]1CN(c2nc(C3=CCCCO3)ccc2C(=O)NS(=O)(=O)c2cccc(N)n2)C(C)(C)C1 [Compound 1438, N-[(6-amino-2-pyridyl)sulfonyl]-6-(3,4-dihydro-2H-pyran-6-yl)-2-[(4S)-2,2,4-trimethylpyrrolidin-1-yl]pyridine-3-carboxamide]
7 | ++ (“++” means between 3 uM and 10 uM) | C[C@@H]1CN(c2nc(C3CC(C)(C)CCC3O)ccc2C(=O)NS(=O)(=O)c2cccc(N)n2)C(C)(C)C1 (stereo partly drawn) [Compound 1439, N-[(6-amino-2-pyridyl)sulfonyl]-6-(2-hydroxy-5,5-dimethyl-cyclohexyl)-2-[(4S)-2,2,4-trimethylpyrrolidin-1-yl]pyridine-3-carboxamide]
8 | ++ (“++” means between 3 uM and 10 uM) | CC1CN(c2nc(C(C)(C)C)c(-c3cnn(C)c3)cc2C(=O)NS(=O)(=O)c2cccc(N)n2)C(C)(C)C1 (stereo not shown) [Compound 1441, N-[(6-amino-2-pyridyl)sulfonyl]-6-tert-butyl-5-(1-methylpyrazol-4-yl)-2-(2,2,4-trimethylpyrrolidin-1-yl)pyridine-3-carboxamide]
9 | +++ (“+++” means <3 uM) | CC(C)[C@@H](C)Nc1ccc(-c2ccc(C(=O)NS(=O)(=O)c3cccc(N)n3)c(N3[C@H](C)CC[C@@H]3C)n2)cn1 [Compound 1442, N-[(6-amino-2-pyridyl)sulfonyl]-6-[6-[[(1R)-1,2-dimethylpropyl]amino]-3-pyridyl]-2-[(2S,5R)-2,5-dimethylpyrrolidin-1-yl]pyridine-3-carboxamide]
10 | +++ (“+++” means <3 uM) | CCOc1cccc2c1CN(Cc1c(C)cc(C)cc1C)C2(C)C(=O)NS(=O)(=O)c1ccncc1 (stereo not shown) [Compound 1449, 4-ethoxy-1-methyl-N-(4-pyridylsulfonyl)-2-[(2,4,6-trimethylphenyl)methyl]isoindoline-1-carboxamide]
11 | +++ (“+++” means <3 uM) | CCOc1cccc2c1CN(Cc1c(C)cc(C)cc1C)C2(C)C(=O)NS(=O)(=O)c1ccc(O)cc1 (stereo not shown) [Compound 1453, 4-ethoxy-N-(4-hydroxyphenyl)sulfonyl-1-methyl-2-[(2,4,6-trimethylphenyl)methyl]isoindoline-1-carboxamide]
12 | +++ (“+++” means <3 uM) | CCOc1cccc2c1CN(Cc1c(C)cc(C)cc1C)C2(C)C(=O)NS(=O)(=O)c1cccc(N)c1 (stereo not shown) [Compound 1454, N-(3-aminophenyl)sulfonyl-4-ethoxy-1-methyl-2-[(2,4,6-trimethylphenyl)methyl]isoindoline-1-carboxamide]
13 | +++ (“+++” means <3 uM) | C[C@@H]1CN(c2nc(C3=COCC3)ccc2C(=O)NS(=O)(=O)c2cccc(N)n2)C(C)(C)C1 [Compound 1455, N-[(6-amino-2-pyridyl)sulfonyl]-6-(2,3-dihydrofuran-4-yl)-2-[(4S)-2,2,4-trimethylpyrrolidin-1-yl]pyridine-3-carboxamide]
14 | +++ (“+++” means <3 uM) | CCOc1cccc2c1CN(Cc1c(C)cc(C)cc1C)C2(C)C(=O)NS(=O)(=O)c1ccccc1N (stereo not shown) [Compound 1457, N-(2-aminophenyl)sulfonyl-4-ethoxy-1-methyl-2-[(2,4,6-trimethylphenyl)methyl]isoindoline-1-carboxamide]
15 | +++ (“+++” means <3 uM) | CC(C)COc1cc(F)cc(-c2ccc(C(=O)NS(=O)(=O)c3cccc(N)n3)c(OC3CC(F)(F)C3)n2)c1 [Compound 1458]

Row | SMILES | EC30
16 | CC(C)COc1cc(F)cc(-c2cc(O)c(C(=O)NS(=O)(=O)c3cccc(N)n3)c(N3[C@H](C)CC[C@@H]3C)n2)c1 [Compound 1430, N-[(6-amino-2-pyridyl)sulfonyl]-2-[(2S,5R)-2,5-dimethylpyrrolidin-1-yl]-6-(3-fluoro-5-isobutoxy-phenyl)-4-hydroxy-pyridine-3-carboxamide] | +++ (“+++” means <3 uM)
17 | CC(C)COc1cc(F)cc(-c2ccc(C(=O)NS(=O)(=O)c3cccc(N)n3)c(OC(C)c3cccnc3)n2)c1 (stereo not shown) [Compound 1434, N-[(6-amino-2-pyridyl)sulfonyl]-6-(3-fluoro-5-isobutoxy-phenyl)-2-[1-(3-pyridyl)ethoxy]pyridine-3-carboxamide] | +++ (“+++” means <3 uM)
18 | CC(C)COc1cc(F)cc(-c2ccc(C(=O)NS(=O)(=O)N3CCC[C@H](N)C3)c(N3C[C@@H](C)CC3(C)C)n2)c1 [Compound 1435, N—[[(3S)-3-amino-1-piperidyl]sulfonyl]-6-(3-fluoro-5-isobutoxy-phenyl)-2-[(4S)-2,2,4-trimethylpyrrolidin-1-yl]pyridine-3-carboxamide] | +++ (“+++” means <3 uM)
19 | CC(C)COc1cc(F)cc(-c2ccc(C(=O)NS(=O)(=O)c3cccc(N)n3)c(OCCC3CCCC3)n2)c1 [Compound 1440, N-[(6-amino-2-pyridyl)sulfonyl]-2-(2-cyclopentylethoxy)-6-(3-fluoro-5-isobutoxy-phenyl)pyridine-3-carboxamide] | +++ (“+++” means <3 uM)
20 | CC(C)COc1cnn(-c2ccc(C(=O)NS(=O)(=O)c3cccc(N)n3)c(N3C[C@@H](C)CC3(C)C)n2)c1 [Compound 1443, N-[(6-amino-2-pyridyl)sulfonyl]-6-(4-isobutoxypyrazol-1-yl)-2-[(4S)-2,2,4-trimethylpyrrolidin-1-yl]pyridine-3-carboxamide] | +++ (“+++” means <3 uM)
21 | CC(C)COc1cc(F)cc(-c2ccc(C(=O)NS(=O)(=O)c3cccnc3N)c(N3C[C@H](C)CC3(C)C)n2)c1 [Compound 1444, N-[(2-amino-3-pyridyl)sulfonyl]-6-(3-fluoro-5-isobutoxy-phenyl)-2-[(4R)-2,2,4-trimethylpyrrolidin-1-yl]pyridine-3-carboxamide] | +++ (“+++” means <3 uM)
22 | CC(C)COc1cc(F)cc(-c2ccc(C(=O)NS(=O)(=O)N3CCCC(C)(N)C3)c(N3CC(C)CC3(C)C)n2)c1 (stereo not shown) [Compound 1445, N-[(3-amino-3-methyl-1-piperidyl)sulfonyl]-6-(3-fluoro-5-isobutoxy-phenyl)-2-(2,2,4-trimethylpyrrolidin-1-yl)pyridine-3-carboxamide] | +++ (“+++” means <3 uM)
23 | CC(C)COc1cc(F)cc(-c2ccc(C(=O)NS(=O)(=O)c3cccc(N)n3)c(OC3CC3)n2)c1 [Compound 1446, N-[(6-amino-2-pyridyl)sulfonyl]-2-(cyclopropoxy)-6-(3-fluoro-5-isobutoxy-phenyl)pyridine-3-carboxamide] | +++ (“+++” means <3 uM)
24 | CC(C)COc1cc(F)cc(-c2ccc(C(=O)NS(=O)(=O)N3CCCC(N)C3)c(N3CC(C)CC3(C)C)n2)c1 (stereo not shown) [Compound 1447, N-[(3-amino-1-piperidyl)sulfonyl]-6-(3-fluoro-5-isobutoxy-phenyl)-2-(2,2,4-trimethylpyrrolidin-1-yl)pyridine-3-carboxamide] | +++ (“+++” means <3 uM)
25 | CC(C)COc1cc(F)cc(-c2ccc(C(=O)NS(=O)(=O)c3cccc(N)n3)c(OCC3CCCC3)n2)c1 [Compound 1450, N-[(6-amino-2-pyridyl)sulfonyl]-2-(cyclopentylmethoxy)-6-(3-fluoro-5-isobutoxy-phenyl)pyridine-3-carboxamide] | +++ (“+++” means <3 uM)
26 | CC(C)COc1cc(F)cc(-c2ccc(C(=O)NS(=O)(=O)c3cccc(N)n3)c(OC3CCCC3)n2)c1 [Compound 1451, N-[(6-amino-2-pyridyl)sulfonyl]-2-(cyclopentoxy)-6-(3-fluoro-5-isobutoxy-phenyl)pyridine-3-carboxamide] | +++ (“+++” means <3 uM)
27 | COc1cccc(S(=O)(=O)NC(=O)c2ccc(-c3cc(F)cc(OCC(C)C)c3)nc2N2C[C@@H](C)CC2(C)C)c1 [Compound 1452, 6-(3-fluoro-5-isobutoxy-phenyl)-N-(3-methoxyphenyl)sulfonyl-2-[(4S)-2,2,4-trimethylpyrrolidin-1-yl]pyridine-3-carboxamide] | +++ (“+++” means <3 uM)
28 | Cc1cc(C)c(Oc2cc(-c3cc(F)cc(OCC(C)C)c3)cnc2C(=O)NS(=O)(=O)c2cccc(N)n2)c(C)c1 [Compound 1456, N-[(6-amino-2-pyridyl)sulfonyl]-5-(3-fluoro-5-isobutoxy-phenyl)-3-(2,4,6-trimethylphenoxy)pyridine-2-carboxamide] | +++ (“+++” means <3 uM)
